Values of other authors in patent US20070154567A1, “Use of mercury to treat cancer” (priority 2006, published 2007).

System: mammary and sarcoma tumor growth in seeded wounds
Details: 0.2% w/v solution administered to the wound site, mice; cited from earlier work

## [Cl][Hg][Cl] [mercuric chloride]
  mammary and sarcoma tumor growth in seeded wounds: reduce
